Assay results: patent publication US9814236B2, “Agricultural or horticultural chemical, method of controlling plant diseases, and product for controlling plant diseases” (Kureha Corporation, priority 2013, dated 2017)
Read-outs that look alike come from different tables or passages of the source.

Columns and labels:
Format in all cases: cell-based
[1] = system: wheat leaf blight (Septoria tritici); test: In vitro antimicrobial activity test on PDA agar plates, 25° C., 14 days (Test Examples 4 to 7)
Procedure: (§1) Additionally, in the above formula, R represents a fungal expansion suppression rate (%), dc represents the diameter of a colony on an untreated plate, and dt represents the diameter of a colony on an chemical-treated plate.
(§2) Inhibition rate during mixed use (theoretical value)=α+((100−α)×β)/100, note that, in the formula above, α and β respectively represent the inhibition rates of the compounds during single use of the compounds.
Testing and determination were performed in the same manner as in Test Example 4 except for using the thiophanate-methyl in place of the boscalid.
Test and determination were performed in the same manner as in Test Example 4 except for using the chlorothalonil in place of the boscalid.

[2] = system: gray mold disease (Botrytis cinerea); test: In vitro antimicrobial activity test on PDA agar plates, 20° C., two days (Test Examples 3, 8); conditions: Test Example 3
[3] = system: gray mold disease (Botrytis cinerea); test: as above; conditions: Test Example 8
Procedure: as §1, §2
Test and determination were performed in the same manner as in Test Example 3 except for using the penthiopyrad in place of the isopyrazam.

[4] = system: wheat leaf blight (Septoria tritici); test: In vitro antimicrobial activity test on PDA agar plates, 20° C., three days (Test Example 1)
Procedure: In the present test example, the antimicrobial properties of a mixed formulation of compound (1) and bixafen on wheat leaf blight (Septoria tritici) were tested.
as §1, §2

[5] = system: wheat damping off (Gaeumannomyces graminis); test: In vitro antimicrobial activity test on PDA agar plates, 20° C., three days (Test Example 2)
From the text: as §1, §2
In the present test example, the antimicrobial properties of a mixed formulation of compound (1) and bixafen on wheat damping off (Gaeumannomyces graminis) were tested.
Meanwhile, wheat damping off was punched out from the periphery of a colony of wheat damping off using a cork borer having a diameter of 4 mm, and inoculated onto the PDA agar plates in which the chemical(s) was(were) mixed.

Cn1cc(C(=O)Nc2ccccc2-c2cc(F)c(F)c(F)c2)c(C(F)F)n1 [Fluxapyroxad, fluxapyroxad]
Fungal growth inhibition rate (%) Measured value ([1]; Test Example 7, Fluxapyroxad 0.04 ppm alone): 11%
Fungal growth inhibition rate (%) Measured value ([1]; Test Example 7, Fluxapyroxad 0.16 ppm alone): 34%
Fungal growth inhibition rate (%) Measured value ([1]; Test Example 7, Fluxapyroxad 0.63 ppm alone): 74%

CC(C)C1C2CCC1c1c(NC(=O)c3cn(C)nc3C(F)F)cccc12 (stereo not drawn) [Isopyrazam, isopyrazam]
Fungal growth inhibition rate (%) Measured value ([2]; Isopyrazam 0.0393 ppm alone): 1%
Fungal growth inhibition rate (%) Measured value ([2]; Isopyrazam 0.1575 ppm alone): 9%
Fungal growth inhibition rate (%) Measured value ([2]; Isopyrazam 0.63 ppm alone): 23%
Fungal growth inhibition rate (%) Measured value ([2]; Isopyrazam 2.5 ppm alone): 35%
Fungal growth inhibition rate (%) Measured value ([2]; Isopyrazam 10 ppm alone): 69%

N#Cc1c(Cl)c(Cl)c(Cl)c(C#N)c1Cl [Chlorothalonil, chlorothalonil]
inhibition at 0.01 ppm ([1]; Zymoseptoria tritici, 4TO7, Test Example 6, Chlorothalonil 0.010 ppm alone, read-out: Fungal growth inhibition rate (%) Measured value): 0%
inhibition at 0.039 ppm ([1]; Zymoseptoria tritici, 4TO7, Test Example 6, Chlorothalonil 0.039 ppm alone, read-out: Fungal growth inhibition rate (%) Measured value): 0%
inhibition at 0.156 ppm ([1]; Zymoseptoria tritici, 4TO7, Test Example 6, Chlorothalonil 0.156 ppm alone, read-out: Fungal growth inhibition rate (%) Measured value): 0%
inhibition at 0.625 ppm ([1]; Zymoseptoria tritici, 4TO7, Test Example 6, Chlorothalonil 0.625 ppm alone, read-out: Fungal growth inhibition rate (%) Measured value): 3%
inhibition at 2.5 ppm ([1]; Zymoseptoria tritici, 4TO7, Test Example 6, Chlorothalonil 2.5 ppm alone, read-out: Fungal growth inhibition rate (%) Measured value): 30%

COC(=O)NC(=S)Nc1ccccc1NC(=S)NC(=O)OC [Thiophanate-methyl, thiophanate-methyl]
inhibition at 0.01 ppm ([1]; Zymoseptoria tritici, 4TO7, Test Example 5, Thiophanate-methyl 0.010 ppm alone, read-out: Fungal growth inhibition rate (%) Measured value): 0%
inhibition at 0.039 ppm ([1]; Zymoseptoria tritici, 4TO7, Test Example 5, Thiophanate-methyl 0.039 ppm alone, read-out: Fungal growth inhibition rate (%) Measured value): 0%
inhibition at 0.156 ppm ([1]; Zymoseptoria tritici, 4TO7, Test Example 5, Thiophanate-methyl 0.156 ppm alone, read-out: Fungal growth inhibition rate (%) Measured value): 0%
inhibition at 0.625 ppm ([1]; Zymoseptoria tritici, 4TO7, Test Example 5, Thiophanate-methyl 0.625 ppm alone, read-out: Fungal growth inhibition rate (%) Measured value): 76%
inhibition at 2.5 ppm ([1]; Zymoseptoria tritici, 4TO7, Test Example 5, Thiophanate-methyl 2.5 ppm alone, read-out: Fungal growth inhibition rate (%) Measured value): 100%

CC(C)CC(C)c1sccc1NC(=O)c1cn(C)nc1C(F)(F)F (stereo not drawn) [Penthiopyrad, penthiopyrad]
inhibition at 0.63 ppm ([3]; Botrytis cinerea, Penthiopyrad 0.63 ppm alone, read-out: Fungal growth inhibition rate (%) Measured value): 31%
inhibition at 2.5 ppm ([3]; Botrytis cinerea, Penthiopyrad 2.50 ppm alone, read-out: Fungal growth inhibition rate (%) Measured value): 61%
inhibition at 10 ppm ([3]; Botrytis cinerea, Penthiopyrad 10.00 ppm alone, read-out: Fungal growth inhibition rate (%) Measured value): 93%

COC(=O)C1(C)CCC(Cc2ccc(Cl)cc2)C1(O)Cn1cncn1 (stereo not drawn) [Compound (1), 3-(4-chlorobenzyl)-2-hydroxy-1-methyl-2-(1H-1,2,4-triazol-1-ylmethyl) cyclopentane carboxylic acid methyl]
Fungal growth inhibition rate (%) Measured value ([4]; Compound (1) 0.005 ppm alone): 0%
Fungal growth inhibition rate (%) Measured value ([5]; Compound (1) 0.005 ppm alone): 0%
Fungal growth inhibition rate (%) Measured value ([3]; Compound (1) 0.078 ppm alone): 13%
Fungal growth inhibition rate (%) Measured value ([1]; Test Example 4, Compound (1) 0.02 ppm alone): 0%
Fungal growth inhibition rate (%) Measured value ([1]; Test Example 5, Compound (1) 0.005 ppm alone): 23%
Fungal growth inhibition rate (%) Measured value ([1]; Test Example 6, Compound (1) 0.005 ppm alone): 81%
Fungal growth inhibition rate (%) Measured value ([1]; Test Example 7, Compound (1) 0.02 ppm alone): 7%
Fungal growth inhibition rate (%) Measured value ([2]; Compound (1) 0.078 ppm alone): 4%

Cn1cc(C(=O)Nc2ccc(F)cc2-c2ccc(Cl)c(Cl)c2)c(C(F)F)n1 [Bixafen, bixafen]
Fungal growth inhibition rate (%) Measured value ([4]; Bixafen 0.0393 ppm alone): 0%
Fungal growth inhibition rate (%) Measured value ([4]; Bixafen 0.1575 ppm alone): 6%
Fungal growth inhibition rate (%) Measured value ([4]; Bixafen 0.63 ppm alone): 31%
Fungal growth inhibition rate (%) Measured value ([4]; Bixafen 2.5 ppm alone): 54%
Fungal growth inhibition rate (%) Measured value ([5]; Bixafen 0.0393 ppm alone): 0%
Fungal growth inhibition rate (%) Measured value ([5]; Bixafen 0.1575 ppm alone): 3%
Fungal growth inhibition rate (%) Measured value ([5]; Bixafen 0.63 ppm alone): 4%
Fungal growth inhibition rate (%) Measured value ([5]; Bixafen 2.5 ppm alone): 29%

O=C(Nc1ccccc1-c1ccc(Cl)cc1)c1cccnc1Cl [Boscalid, boscalid]
inhibition at 0.0393 ppm ([1]; Zymoseptoria tritici, 4TO7, Test Example 4, Boscalid 0.0393 ppm alone, read-out: Fungal growth inhibition rate (%) Measured value): 0%
inhibition at 0.1575 ppm ([1]; Zymoseptoria tritici, 4TO7, Test Example 4, Boscalid 0.1575 ppm alone, read-out: Fungal growth inhibition rate (%) Measured value): 0%
inhibition at 0.63 ppm ([1]; Zymoseptoria tritici, 4TO7, Test Example 4, Boscalid 0.63 ppm alone, read-out: Fungal growth inhibition rate (%) Measured value): 31%
inhibition at 2.5 ppm ([1]; Zymoseptoria tritici, 4TO7, Test Example 4, Boscalid 2.5 ppm alone, read-out: Fungal growth inhibition rate (%) Measured value): 49%
inhibition at 10 ppm ([1]; Zymoseptoria tritici, 4TO7, Test Example 4, Boscalid 10 ppm alone, read-out: Fungal growth inhibition rate (%) Measured value): 100%
